Our source for the melting point values is patent publication US6350720B2, “Substituted phenyltriazolin(THI)ones and their use as herbicides” (Bayer Aktiengesellschaft, priority 1997, dated 2002).

On to `CCS(=O)(=O)N(C(C)=O)c1cc(-n2nc(C(F)(F)F)n(C)c2=O)c(F)cc1C#N`, for which the melting point (in general, the temperature of the solid-liquid transition) came out at 179 °C.
